# Measurements: patent US5290790A, “4-(4-imidazolyl) piperidines substituted at position 1, their preparation and also their therapeutic applications” (National De La Sante et De La Recherche Medicale, priority 1990, dated 1994)
# Counter-ions that a name gives are not always drawn.
# Target: T1, H3 histaminergic receptors (Rattus norvegicus, UniProt Q9QYN8)
# Test: not given
# Conditions: histamine at a concentration of 1 μM; cited from earlier work
# T1 sequence (Q9QYN8 whole entry): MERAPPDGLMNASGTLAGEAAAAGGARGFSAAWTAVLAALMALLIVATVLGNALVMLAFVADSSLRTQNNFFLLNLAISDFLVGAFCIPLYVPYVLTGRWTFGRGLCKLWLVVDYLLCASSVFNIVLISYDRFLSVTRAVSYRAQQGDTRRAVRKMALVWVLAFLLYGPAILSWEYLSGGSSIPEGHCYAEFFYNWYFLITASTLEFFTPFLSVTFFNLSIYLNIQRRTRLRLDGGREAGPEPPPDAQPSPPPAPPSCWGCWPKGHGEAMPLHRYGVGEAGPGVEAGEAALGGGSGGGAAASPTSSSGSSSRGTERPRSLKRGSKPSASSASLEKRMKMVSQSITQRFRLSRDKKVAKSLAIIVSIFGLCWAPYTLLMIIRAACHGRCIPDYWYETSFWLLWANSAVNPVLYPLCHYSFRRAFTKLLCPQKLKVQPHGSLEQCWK
row,SMILES,Inhibition of release by exogenous histamine
1,NCCc1c[nH]cn1 [histamine],approximately 50%

# Target: T1, H3 histaminergic receptors
# Test: Reversal by H3 antagonists of exogenous histamine-induced inhibition of histamine release in sections of rat cerebral cortex (Arrang et al.)
# Type: biochemical
# Conditions: not given
# From the text: This method employs sections of rat cerebral cortex, and made possible the pharmacological characterisation of the H3 receptors (Nature, 1987, 327; 117-123).
# This effect is progressively reversed in the presence of H3 antagonists such as the compounds of the invention, added at increasing concentrations. […]
row,SMILES,Ki [nM]
1,O=C(NCCC1CCCCC1)N1CCC(c2c[nH]cn2)CC1 [Compound 77],68
2,"O=C(CC1CC2CCC1C2)N1CCC(c2c[nH]cn2)CC1 (centres unmarked) [Compound 23, 1-(Norbornylmethylcarbonyl)-4-(1H-imidazol-4-yl)piperidine]",23
3,"O=C(CCc1ccccc1)N1CCC(c2c[nH]cn2)CC1 [Compound 38, 1-(3-Phenylpropionyl)-4-(1H-imidazol-4-yl)piperidine (Oxalate)]",84
4,O=C(CCCCCCc1ccccc1)N1CCC(c2c[nH]cn2)CC1 [Compound 48],65
5,"OC(=CCCc1ccccc1)N1CCC(c2c[nH]cn2)CC1 [Compound 59, 1-(1-Hydroxy-4-phenyl-1-buten-1-yl)-4-(4-imidazolyl)piperidine (Dihydrochloride)]",47
6,"OC(=CCCCCCCCCCOc1ccccc1)N1CCC(c2c[nH]cn2)CC1 [Compound 60, 1-(1-Hydroxy-11-phenoxy-1-undecen-1-yl)-4-(4-imidazolyl)piperidine (dihydrochloride)]",120
7,O=C(CCCc1cccs1)N1CCC(c2c[nH]cn2)CC1 [Compound 43],35
8,O=C(NCCCc1ccccc1)N1CCC(c2c[nH]cn2)CC1 [Compound 83],77
9,CCCCCCC(=O)N1CCC(c2cnc[nH]2)CC1 [Compound 1],48
10,O=C(C1CC1c1ccccc1)N1CCC(c2c[nH]cn2)CC1 (centres unmarked) [Compound 13],20
11,O=C(CC1CCC1)N1CCC(c2c[nH]cn2)CC1 [Compound 20],59

# Same assay, conditions: read-out: Apparent dissociation constant (Ki) as histamine antagonists at receptors of rat brain; sections of rat cerebral cortex; exogenous histamine 1 μM; apparent Ki calculated from IC50 according to Cheng and Prusoff with histamine EC=0.1 μM
row,SMILES,Ki [nM]
1,O=C(N1CCC(c2c[nH]cn2)CC1)C12CC3CC(CC(C3)C1)C2 [Compound 8],63
2,"O=C(CCCOc1ccccc1)N1CCC(c2cn(C(=O)Nc3ccc(Cl)cc3Cl)cn2)CC1 [Compound 92, 1-(4-Phenoxybutylryl)-4-[1-(2,4-Dichlorophenylaminocarbonyl)-4-imidazolyl]piperidine]",34
